Measured values as given in patent US20170022171A1, “2,5-DISUBSTITUTED CYCLOPENTANECARBOXYLIC ACIDS AND THEIR USE” (Bayer Pharma Aktiengesellschaft, priority 2014, published 2017).

Target: T1, human macrophage elastase (HME/hMMP-12) (Homo sapiens, UniProt P39900)
T1 construct: 0.5 nM HME; purchased R&D Systems 917-MP
Experiment: In vitro HME inhibition test (standard or high-sensitivity)
Format: biochemical
Settings: in some cases mean values
Protocol: The potency of the compounds according to the invention with respect to HME (MMP-12) is determined in an in vitro inhibition test. The HME-mediated amidolytic cleavage of a suitable peptide substrate leads to an increase in fluorescent light therein. The signal intensity of the fluorescent light is directly proportional to the enzyme activity. The active concentration of a test compound at which half the enzyme is inhibited (50% signal intensity of the fluorescent light) is reported as the IC50 value.
In a 384 hole microtiter plate, in a total test volume of 41 the test buffer (0.1 M HEPES pH 7.4, 0.15 M NaCl, 0.03 M CaCl2, 0.004 mM ZnCl2, 0.02 M EDTA, 0.005% Brij®), the enzyme (0.5 nM HME; from R&D Systems, 917-MP, autocatalytic activation according to the manufacturer's instructions) and the intramolecularly quenched substrate [5 μM Mca-Pro-Leu-Gly-Leu-Glu-Glu-Ala-Dap(Dnp)-NH2; Bachem, M-2670] are incubated in the absence and presence of the test substance (as a solution in DMSO) at 37° C. for two hours. The fluorescence intensity of the test mixtures is measured (excitation […], emission 393 nm). The IC50 values are ascertained by plotting the fluorescent light intensity against the active ingredient concentration.
In this case, an enzyme concentration ten times lower is used (final concentration, for example, 0.05 nM) in order to achieve an elevated test sensitivity. The incubation period chosen for the test is correspondingly longer (for example 16 hours).

T1 sequence (P39900 106-470): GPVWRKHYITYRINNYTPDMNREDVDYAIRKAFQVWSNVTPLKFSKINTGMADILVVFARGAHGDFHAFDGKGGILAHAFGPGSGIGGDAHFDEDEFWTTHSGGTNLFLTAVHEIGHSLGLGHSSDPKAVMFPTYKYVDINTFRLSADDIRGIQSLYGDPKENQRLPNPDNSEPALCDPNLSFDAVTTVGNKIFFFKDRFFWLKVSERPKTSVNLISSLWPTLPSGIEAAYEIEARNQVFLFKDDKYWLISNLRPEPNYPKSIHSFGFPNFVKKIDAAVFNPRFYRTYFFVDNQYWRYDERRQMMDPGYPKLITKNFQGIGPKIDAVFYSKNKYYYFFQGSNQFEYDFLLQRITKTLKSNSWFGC

Row | Compound | IC50
1 | O=C(O)[C@H]1[C@H](Cn2nnc3ccc(C(F)(F)F)cc3c2=O)CC[C@@H]1C(=O)c1ccc(OCC2CCC2)cc1 (racemic) [Example 46, (+/−)-(1RS,2RS,5SR)-2-[4-(Cyclobutylmethoxy)benzoyl]-5-{[4-oxo-6-(trifluoromethyl)-1,2,3-benzotriazin-3(4H)-yl]methyl}cyclopentanecarboxylic acid] | 0.034 nM
2 | CCCCCCOc1ccc(C(=O)[C@@H]2CC[C@H](Cn3nnc4ccc(C(F)(F)F)cc4c3=O)[C@H]2C(=O)O)cc1 (single isomer, unassigned) [Example 59, (−)-(1RS,2RS,5SR)-2-[4-(Hexyloxy)benzoyl]-5-{[4-oxo-6-(trifluoromethyl)-1,2,3-benzotriazin-3(4H)-yl]methyl}cyclopentanecarboxylic acid] | 4.2 nM
3 | (−)-(1RS,2SR,5RS)-2-{[4-Oxo-6-(trifluoromethyl)-1,2,3-benzotriazin-3(4H)-yl]methyl}-5-{4-[(2-phenylethy)sulphanyl]benzoyl}cyclopentanecarboxylic acid [Example 84] | 33 nM
4 | Cc1cccc(COc2ccc(C(=O)[C@@H]3CC[C@H](Cn4nnc5ccc(C(F)(F)F)cc5c4=O)[C@H]3C(=O)O)cc2)c1 (single isomer, unassigned) [Example 17, (−)-(1RS,2RS,5SR)-2-{4-[(3-Methylbenzyl)oxy]benzoyl}-5-{[4-oxo-6-(trifluoromethyl)-1,2,3-benzotriazin-3(4H)-yl]methyl}cyclopentanecarboxylic acid] | 48 nM
5 | O=C(O)[C@@H]1[C@@H](Cn2nnc3ccc(C(F)(F)F)cc3c2=O)CC[C@H]1C(=O)c1ccc(SCc2cccc(Cl)c2)cc1 (single isomer, unassigned) [Example 78, (−)-(1RS,2RS,5SR)-2-{4-[(3-Chlorobenzyl)sulphanyl]benzoyl}-5-{[4-oxo-6-(trifluoromethyl)-1,2,3-benzotriazin-3(4H)-yl]methyl}cyclopentanecarboxylic acid] | 8.8 nM
6 | CC(C)CCOc1ccc(C(=O)[C@@H]2CC[C@H](Cn3nnc4ccc(C(F)(F)F)cc4c3=O)[C@H]2C(=O)O)cc1 (single isomer, unassigned) [Example 62, (−)-(1RS,2RS,5SR)-2-[4-(3-Methylbutoxy)benzoyl]-5-{[4-oxo-6-(trifluoromethyl)-1,2,3-benzotriazin-3(4H)-yl]methyl}cyclopentanecarboxylic acid] | 4.7 nM
7 | O=C(O)[C@H]1[C@H](Cn2nnc3ccc(C(F)(F)F)cc3c2=O)CC[C@@H]1C(=O)c1ccc(OCc2cccc(N3CCOC3=O)c2)cc1 (racemic) [Example 33, (+/−)-(1RS,2RS,5SR)-2-(4-{[3-(2-Oxo-1,3-oxazolidin-3-yl)benzyl]oxy}benzoyl)-5-{[4-oxo-6-(trifluoromethyl)-1,2,3-benzotriazin-3 (4H)-yl]methyl}cyclopentanecarboxylic acid] | 0.13 nM
8 | CCCCOc1ccc(C(=O)[C@@H]2CC[C@H](Cn3nnc4ccc(C(F)(F)F)cc4c3=O)[C@H]2C(=O)O)cc1 (single isomer, unassigned) [Example 68, (−)-(1RS,2RS,5SR)-2-(4-Butoxybenzoyl)-5-{[4-oxo-6-(trifluoromethyl)-1,2,3-benzotriazin-3(4H)-yl]methyl}cyclopentanecarboxylic acid] | 2.1 nM
9 | O=C(O)[C@@H]1[C@@H](Cn2nnc3ccc(C(F)(F)F)cc3c2=O)CC[C@H]1C(=O)c1ccc(SCc2ccccc2)cc1 (single isomer, unassigned) [Example 74, (−)-(1RS,2RS,5SR)-2-[4-(Benzylsulphanyl)benzoyl]-5-{[4-oxo-6-(trifluoromethyl)-1,2,3-benzotriazin-3(4H)-yl]methyl}cyclopentanecarboxylic acid] | 160 nM
10 | CCCCCCOc1ccc(C(=O)[C@H]2CC[C@@H](Cn3nnc4ccc(C(F)(F)F)cc4c3=O)[C@@H]2C(=O)O)cc1 (racemic) [Example 57, (+/−)-(1RS,2RS,5SR)-2-[4-(Hexyloxy)benzoyl]-5-{[4-oxo-6-(trifluoromethyl)-1,2,3-benzotriazin-3(4H)-yl]methyl}cyclopentanecarboxylic acid] | 0.028 nM
11 | (−)-(1RS,2RS,5SR)-2-{4-[(3,4-Dichlorobenzyl)oxy]benzoyl}-5-{[4-oxo-6-(trifluoromethyl)-1,2,3-benzotriazin-3(4H)-yl]methyl}cyclopentanecarboxylic acid [Example 29] | 4.1 nM
12 | CCCOc1ccc(C(=O)[C@@H]2CC[C@H](Cn3nnc4ccc(C(F)(F)F)cc4c3=O)[C@H]2C(=O)O)cc1 (single isomer, unassigned) [Example 71, (−)-(1RS,2SR,5RS)-2-{[4-Oxo-6-(trifluoromethyl)-1,2,3-benzotriazin-3(4H)-yl]methyl}-5-(4-propoxybenzoyl)cyclopentanecarboxylic acid] | 2.7 nM
13 | CCCCCOc1ccc(C(=O)[C@@H]2CC[C@H](Cn3nnc4ccccc4c3=O)[C@H]2C(=O)O)cc1 (single isomer, unassigned) [Example 8, (+)-(1RS,2SR,5RS)-2-[(4-Oxo-1,2,3-benzotriazin-3(4H)-yl)methyl]-5-[4-(pentyloxy)benzoyl]cyclopentanecarboxylic acid] | 0.21 nM
14 | (−)-(1RS,2RS,5SR)-2-{4-[Cyclohexyl)methyl)sulphanyl]benzoyl}-5-{[4-oxo-6-(trifluoromethyl)-1,2,3-benzotriazin-3(4H)-yl]methyl}cyclopentanecarboxylic acid [Example 87] | 8.3 nM
15 | O=C(O)[C@H]1[C@H](Cn2nnc3ccc(C(F)(F)F)cc3c2=O)CC[C@@H]1C(=O)c1ccc(OCCc2ccccc2)cc1 (racemic) [Example 36, (+/−)-(1RS,2SR,5RS)-2-{[4-Oxo-6-(trifluoromethyl)-1,2,3-benzotriazin-3(4H)-yl]methyl}-5-[4-(2-phenylethoxy)benzoyl]cyclopentanecarboxylic acid] | 0.13 nM

Next, values leading:

Row | IC50 | Compound
16 | 25 nM | O=C(O)[C@@H]1[C@@H](Cn2nnc3ccc(C(F)(F)F)cc3c2=O)CC[C@H]1C(=O)c1ccc(SCc2ccc(Cl)c(Cl)c2)cc1 (single isomer, unassigned) [Example 81, (−)-(1RS,2RS,5SR)-2-{4-[(3,4-Dichlorobenzyl)sulphanyl]benzoyl}-5-{[4-oxo-6-(trifluoromethyl)-1,2,3-benzotriazin-3(4H)-yl]methyl}cyclopentanecarboxylic acid]
17 | 470 nM | COc1cccc(COc2ccc(C(=O)[C@@H]3CC[C@H](Cn4nnc5ccc(C)cc5c4=O)[C@H]3C(=O)O)cc2)c1 (single isomer, unassigned) [Example 108, (−)-(1RS,2RS,5SR)-2-{4-[(3-Methoxybenzyl)oxy]benzoyl}-5-[(6-methyl-4-oxo-1,2,3-benzotriazin-3(4H)-yl)methyl]cyclopentanecarboxylic acid]
18 | 8.7 nM | Cc1ccc2nnn(C[C@H]3CC[C@@H](C(=O)c4ccc(OCc5cccc(C(F)(F)F)c5)cc4)[C@@H]3C(=O)O)c(=O)c2c1 (single isomer, unassigned) [Example 102, (−)-(1RS,2SR,5RS)-2-[(6-Methyl-4-oxo-1,2,3-benzotriazin-3(4H)-yl)methyl]-5-(4-{[3-(trifluoromethyl)benzyl]oxy}benzoyl)cyclopentanecarboxylic acid]
19 | 0.062 nM | CCCCCOc1ccc(C(=O)[C@@H]2CC[C@H](Cn3nnc4ccc(C)cc4c3=O)[C@H]2C(=O)O)cc1 (single isomer, unassigned) [Example 124, (+)-(1RS,2SR,5RS)-2-[(6-Methyl-4-oxo-1,2,3-benzotriazin-3(4H)-yl)methyl]-5-[4-(pentyloxy)benzoyl]cyclopentanecarboxylic acid]
20 | 14 nM | Cc1ccc2nnn(C[C@H]3CC[C@@H](C(=O)c4ccc(OCc5cccc(Cl)c5)cc4)[C@@H]3C(=O)O)c(=O)c2c1 (single isomer, unassigned) [Example 105, (−)-(1RS,2RS,5SR)-2-{4-[(3-Chlorobenzyl)oxy]benzoyl}-5-[(6-methyl-4-oxo-1,2,3-benzotriazin-3(4H)-yl)methyl]cyclopentanecarboxylic acid]
21 | 0.055 nM | Cc1ccc2nnn(C[C@@H]3CC[C@H](C(=O)c4ccc(OCc5ccc(F)cc5)cc4)[C@H]3C(=O)O)c(=O)c2c1 (racemic) [Example 94, (+/−)-(1RS,2RS,5SR)-2-{4-[(4-Fluorobenzyl)oxy]benzoyl}-5-[(6-methyl-4-oxo-1,2,3-benzotriazin-3(4H)-yl)methyl]cyclopentanecarboxylic acid]
22 | 1.1 nM | CCCCCSc1ccc(C(=O)[C@@H]2CC[C@H](Cn3nnc4ccc(C(F)(F)F)cc4c3=O)[C@H]2C(=O)O)cc1 (single isomer, unassigned) [Example 90, (−)-(1RS,2SR,5RS)-2-{[4-Oxo-6-(trifluoromethyl)-1,2,3-benzotriazin-3(4H)-yl]methyl}-5-[4-(pentylsulphanyl)benzoyl]cyclopentanecarboxylic acid]
23 | 0.093 nM | Cc1ccc2nnn(C[C@@H]3CC[C@H](C(=O)c4ccc(OCC5CCCCC5)cc4)[C@H]3C(=O)O)c(=O)c2c1 (racemic) [Example 116, (+/−)-(1RS,2RS,5SR)-2-[4-(Cyclohexylmethoxy)benzoyl]-5-[(6-methyl-4-oxo-1,2,3-benzotriazin-3(4H)-yl)methyl]cyclopentanecarboxylic acid]
